Data on three molecules can be found in patent US5072011A, “Pt(IV) complexes” (Johnson Matthey, Inc., priority 1990, dated 1991).

For data set [1] the following is noted: common organic solvents, e.g., acetone, methylene chloride; cited from earlier work.
The test system of another data set is ADJ/PC6 tumor. Briefly: antitumor activity using ADJ/PC6 tumor in mice. Type of data set: in vivo. The following applies: for P.O. ED90 / P.O. TI: oral (P.O.); for P.O. TI / I.P. TI: TI from LD50 and ED90; for I.P. ED90 / I.P. TI: parenteral (I.P.). The method, then: (§1) Complexes according to the invention were tested for antitumor activity using ADJ/PC6 tumor in mice. The complexes were administered parenterally (I.P.) or orally (P.O.).

In another data set the test system is mice. Briefly: lethality (LD50) in mice, ADJ/PC6 antitumor test. Type of data set: in vivo. The following applies: for P.O. LD50: oral (P.O.); for I.P. LD50: parenteral (I.P.). The method, then: as §1

Consider `N.N.O=C([O-])C1(C(=O)[O-])CCC1.[Pt+2]` [carboplatin], for which the “solubility in water / organic solvents (in words), prior-art complexes” value in data set [1] is “dissolve more readily in water than they do in common organic solvents”.

As to “c-t-c-PtCl2 (O2 CCH2 CH3)2 (NH3)(n-C3 H7 NH2) [Compound 9 (Table 2)]”, in the data set on ADJ/PC6 tumor, the “P.O. ED90” value stood at 8.6 mg/kg, the “P.O. TI” value is 13.7, the “I.P. ED90” value came out at 5.6 mg/kg and the “I.P. TI” value is recorded as 7.4. Moreover, in the data set with mice, the “P.O. LD50” value was 118 mg/kg and the “I.P. LD50” value stood at 41.5 mg/kg.

For “c-t-c-PtCl2 (O2 CCH3)2 (NH3)(n-C3 H7 NH2) [Compound 8 (Table 2)]”, in the data set with ADJ/PC6 tumor, the “P.O. ED90” value worked out at 18 mg/kg, the “P.O. TI” value was found to be 13.1, the “I.P. ED90” value was 3.1 mg/kg and the “I.P. TI” value is reported as 11.3. In the data set with mice, the “P.O. LD50” value came out at 235 mg/kg and the “I.P. LD50” value is given as 35 mg/kg.
